Data set [1] has as its system high-sensitivity C-reactive protein (hsCRP) [高感度C−反応性タンパク質(hsCRP)]. The data set is described as follows: Blood level of high-sensitivity C-reactive protein, aged macaques. The format is in vivo, cynomolgus macaque (Macaca fascicularis). The conditions noted are these: 6 monthly intravitreal injections.
Data set [2] has as its system fellow non-injected eye [もう片方の非注射側の眼]. In words: Effect in the fellow non-injected eye (staining and thickness, figures 2 to 6), aged macaques. The format is in vivo, cynomolgus macaque (Macaca fascicularis). The note with it: after 6 monthly intravitreal injections (figures 2 to 6).
Data set [3] in a line: Tolerability and adverse events of intravitreal injection, aged macaques. The format is in vivo, cynomolgus macaque (Macaca fascicularis). The note with it: all macaques; 6 monthly intravitreal injections.
The test system of data set [4] is esterified cholesterol in Bruch's membrane [ブルッフ膜内のエステル型コレステロール]. In words: Filipin fluorescence of esterified cholesterol in Bruch's membrane, aged macaques. The class given is in vivo, cynomolgus macaque (Macaca fascicularis). The note with it: injected eye; 6 monthly intravitreal injections, total 625 μg; vs scrambled L-4F.
Data set [5] concerns neutral lipid in and on Bruch's membrane [ブルッフ膜内及びブルッフ膜上の中性脂質]. The data set is described as follows: Oil red O (ORO) staining of neutral lipid in and on Bruch's membrane, aged macaques with naturally occurring age-related maculopathy. The format is in vivo, cynomolgus macaque (Macaca fascicularis). The conditions noted are these: injected eye; 6 monthly intravitreal injections, total 625 μg; after 6 months; vs scrambled L-4F.

Data set [6] relates to complement factor D (CFD) [補体因子D(CFD)]. The data set is described as follows: Immunohistochemistry of complement factor D, aged macaques. The conditions noted are these: injected eye; 6 monthly intravitreal injections, total 625 μg; vs scrambled L-4F. The class given is in vivo, cynomolgus macaque (Macaca fascicularis).
Data set [7] deals with Bruch's membrane [ブルッフ膜]. The data set is described as follows: Bruch's membrane thickness and integrity by electron microscopy, aged macaques. The class given is in vivo, cynomolgus macaque (Macaca fascicularis).
For data set [8], the system named is membrane attack complex (MAC, C5b-9) [膜侵襲複合体(MAC、C5b−9)]. The data set is described as follows: Immunohistochemistry of membrane attack complex in Bruch's membrane and choriocapillaris, aged macaques. The class given is in vivo, cynomolgus macaque (Macaca fascicularis). The conditions noted are these: injected eye; 6 monthly intravitreal injections, total 625 μg; vs scrambled L-4F.

For data set [9] the following is noted: estimated; cited from earlier work.
In data set [10] the test system is geographic atrophy [地図状萎縮]. The note with it: 10 mg intravitreal once a month, 18 months, cited from earlier work.

Consider 5 substances from JP2020514407A, “アポリポプロテイン模倣物を用いる加齢黄斑変性と他の眼疾患の治療” (MacRegen Inc, priority 2017, dated 2018).

For “Ac−DWFKAFYDKVAEKFKEAF−NH2 (Ac-DWFKAFYDKVAEKFKEAF-NH2) [L−4F]”, the “change in hsCRP blood level compared with the day before the first injection” value in data set [1] is “hsCRPの血中レベルを増加させなかった”. Besides, in data set [2], the “effect on the fellow non-injected eye relative to the injected eye” value is reported as “同様の効果を有していた”. In [3], the tolerability entry is listed as “十分耐性があり”. The “reduction of esterified cholesterol in Bruch's membrane (filipin fluorescence, semiquantitative) compared with placebo-injected eyes” value in [4] is approximately 68%. Further, in data set [5], the “reduction of lipid deposits from Bruch's membrane (oil red O staining) compared with placebo-injected eyes” value is on record as approximately 56%. Besides, in data set [6], the “reduction of complement factor D level compared with eyes injected with scrambled peptide” value is approximately 41%. In data set [7] (L-4F-injected eye, temporal outer macula, post mortem, printed 1.31μm±SE0.11, placebo (scrambled L-4F) 1.73μm±SE0.02), the “thickness of Bruch's membrane” value turned out to be 1.31 μm. The “Bruch's membrane integrity” value in data set [7] (after removal of lipid deposits, confirmed by electron microscopy) was “BrMの完全性が回復し”. The “reduction of Bruch's membrane thickness compared with placebo-injected eyes” value in data set [7] (injected eye, temporal outer macula, vs scrambled L-4F) is reported as approximately 24%. The “reduction of MAC (C5b-9) level in Bruch's membrane and choriocapillaris compared with eyes injected with scrambled peptide” value in [8] is on record as approximately 58%.

As for “アフリベルセプト: soluble fusion protein comprising extracellular domains of VEGFR”, in [9], the intravitreal half-life is approximately 216 h.

For the substance ベバシズマブ: anti-VEGF antibody or fragment, in data set [9], the intravitreal half-life is approximately 235 h.

With ラニビズマブ: anti-VEGF antibody or fragment, in data set [9], the intravitreal half-life was approximately 170 h.

“ランパリズマブ: antigen-binding fragment (Fab) of a humanized monoclonal antibody targeting complement factor D”: the “reduction of geographic atrophy area, CFI biomarker-positive subgroup” value in data set [10] (CFI biomarker-positive patients) is approximately 44%. Moreover, the “reduction of geographic atrophy area in the injected eye compared with placebo patients” value in [10] (one eye) was approximately 20%.
